These compounds were tested against T1, GCS (Canis lupus familiaris, UniProt A0A8I3MXG6) (assay: GCS enzymatic assay (MDCK cell lysate, NBD-ceramide to glucosylceramide, LC/MS)). Details: Table 2; class symbols A, B, C; the table does not say which of the assays; read-out: Data Range (IC50 values).
T1 construct: endogenous in cells; host or cells: MDCK (Madin-Darby canine kidney) cells, whole-cell lysate
T1 sequence (A0A8I3MXG6 1-394): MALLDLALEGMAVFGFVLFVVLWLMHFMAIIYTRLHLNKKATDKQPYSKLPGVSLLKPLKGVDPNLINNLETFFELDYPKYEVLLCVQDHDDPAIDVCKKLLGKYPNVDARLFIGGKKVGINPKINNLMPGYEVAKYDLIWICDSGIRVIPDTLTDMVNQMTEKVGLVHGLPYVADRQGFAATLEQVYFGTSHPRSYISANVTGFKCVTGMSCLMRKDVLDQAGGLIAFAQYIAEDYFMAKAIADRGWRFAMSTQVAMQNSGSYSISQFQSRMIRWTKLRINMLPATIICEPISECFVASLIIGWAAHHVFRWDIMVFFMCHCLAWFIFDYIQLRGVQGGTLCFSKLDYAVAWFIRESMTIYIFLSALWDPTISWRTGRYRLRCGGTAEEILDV
Type: biochemical, canine
Outline: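 IC50 or percent inhibition came from LC/MS/MS (ESI+, MRM) of NBD-ceramide and glucosylceramide, with tolbutamide as internal standard. The reaction used MDCK (canine) cell lysate as the enzyme source and was ended with acetonitrile. Mock wells received 0.1% DMSO.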
With O=C(N[C@H](CN1CCCC1)[C@H](O)c1ccc2c(c1)OCCO2)[C@@H]1CCN(c2ccc3cc(Cl)sc3c2)C1 [Compound 76, (R)-1-(2-chlorobenzo[b]thiophen-6-yl)-N-((1R,2R)-1-(2,3-dihydrobenzo[b][1,4]dioxin-6-yl)-1-hydroxy-3-(pyrrolidin-1-yl)propan-2-yl)pyrrolidine-3-carboxamide] the IC50 was 30 to 100 nM.
With O=C(N[C@H](CN1CCCC1)[C@H](O)c1ccc2c(c1)OCCO2)C1CCN(c2ccc3cc(Cl)sc3c2)C1 (stereo partly drawn) [Compound 76D, 1-(2-chlorobenzo[b]thiopen-6-yl)-N-((1R,2R)-1-(2,3-dihydrobenzo[b][1,4]dioxin-6-yl)-1-hydroxy-3-(pyrrolidin-1-yl)propan-2-yl)pyrrolidine-3-carboxamide] the IC50 was 1 to 30 nM.
For O=C(N[C@H](CN1CCCC1)[C@H](O)c1ccc2c(c1)OCCO2)C1CCN(c2ccc3cc(F)ccc3c2)C1 (stereo in doubt) [Compound 14, (S)-N-((1R,2R)-1-(2,3-dihydrobenzo[b][1,4]dioxin-6-yl)-1-hydroxy-3-(pyrrolidin-1-yl)propan-2-yl)-1-(6-fluoronaphthalen-2-yl)pyrrolidine-3-carboxamide], the IC50 was 1 to 30 nM.
With O=C(N[C@H](CN1CCC1)[C@H](O)c1ccc(OC2CC2)cc1)[C@@H]1CCN(c2ccc3cc(F)ccc3c2)C1 [Compound 159, (R)-N-((1R,2R)-3-(azetidin-1-yl)-1-(4-cyclopropoxyphenyl)-1-hydroxypropan-2-yl)-1-(6-fluoronaphthalen-2-yl)pyrrolidine-3-carboxamide] the IC50 was 30 to 100 nM.
O=C(N[C@H](CN1CCCC1)[C@H](O)c1ccc(OC2CC2)c(Cl)c1)[C@@H]1CCN(c2ccc3ccccc3c2)C1 [Compound 67, (R)-N-((1R,2R)-1-(3-chloro-4-cyclopropoxyphenyl)-1-hydroxy-3-(pyrrolidin-1-yl)propan-2-yl)-1-(naphthalen-2-yl)pyrrolidine-3-carboxamide] was tested, and the IC50 was 1 to 30 nM.
O=C(N[C@H](CN1CCCC1)[C@H](O)c1ccc2c(c1)OCCO2)[C@@H]1CCN(c2ccc3ccccc3c2)C1 [Compound 70, (R)-N-((1R,2R)-1-(2,3-dihydrobenzo[b][1,4]dioxin-6-yl)-1-hydroxy-3-(pyrrolidin-1-yl)propan-2-yl)-1-(naphthalen-2-yl)pyrrolidine-3-carboxamide] gave an IC50 of 1 to 30 nM.
Compound O=C(N[C@H](CN1CCCC1)[C@H](O)c1ccc(OC2CC2)c(Cl)c1)[C@@H]1CCN(c2ccc(Cl)c(Oc3ccccn3)c2)C1 [Compound 103, (R)-1-(4-chloro-3-(pyridin-2-yloxy)phenyl)-N-((1R,2R)-1-(3-chloro-4-cyclopropoxyphenyl)-1-hydroxy-3-(pyrrolidin-1-yl)propan-2-yl)pyrrolidine-3-carboxamide] has an IC50 of 1 to 30 nM.
With O=C(N[C@H](CN1CCCC1)[C@H](O)c1cc(F)c2c(c1)OCCO2)[C@@H]1CCN(c2ccc3cc(Cl)sc3c2)C1 [Compound 111, (R)-1-(2-chlorobenzo[b]thiophen-6-yl)-N-((1R,2R)-1-(8-fluoro-2,3-dihydrobenzo[b][1,4]dioxin-6-yl)-1-hydroxy-3-(pyrrolidin-1-yl)propan-2-yl)pyrrolidine-3-carboxamide] the IC50 was 1 to 30 nM.
For O=C(N[C@H](CN1CCCC1)[C@H](O)c1ccc2c(c1)OCCO2)[C@H]1CCN(c2ccc3cc(Cl)sc3c2)C1 [Compound 76E, (S)-1-(2-chlorobenzo[b]thiophen-6-yl)-N-((1R,2R)-1-(2,3-dihydrobenzo[b][1,4]dioxin-6-yl)-1-hydroxy-3-(pyrrolidin-1-yl)propan-2-yl)pyrrolidine-3-carboxamide], the IC50 was 1 to 30 nM.
Compound O=C(N[C@H](CN1CCCC1)[C@H](O)c1ccc(OC2CC2)c(Cl)c1)[C@@H]1CCN(c2cccc(Oc3ccccn3)c2)C1 [Compound 75, (R)-N-((1R,2R)-1-(3-chloro-4-cyclopropoxyphenyl)-1-hydroxy-3-(pyrrolidin-1-yl)propan-2-yl)-1-(3-(pyridin-2-yloxy)phenyl)pyrrolidine-3-carboxamide] has an IC50 of 1 to 30 nM.

Same assay, conditions: Table 2; class symbols D, E, F, NA (not active); the table does not say which of the assays
For O=C(N[C@H](CN1CCCC1)[C@H](O)c1ccc2c(c1)OCCO2)[C@H]1CCN(c2nc3c(s2)CCCC3)C1 [Compound 36G, (S)-N-((1R,2R)-1-(2,3-dihydrobenzo[b][1,4]dioxin-6-yl)-1-hydroxy-3-(pyrrolidin-1-yl)propan-2-yl)-1-(4,5,6,7-tetrahydrobenzo[d]thiazol-2-yl)pyrrolidine-3-carboxamide], the “Data Range (% inhibition)” value was “NA (not active—a negative value was generated for % inhibition)”.
O=C(N[C@H](CN1CCCC1)[C@H](O)c1ccc(OCCN2CCC2)c(Cl)c1)[C@H]1CCN(c2ccc(Cl)cc2)C1 [Compound 60A, (S)-N-((1R,2R)-1-(4-(2-(azetidin-1-yl)ethoxy)-3-chlorophenyl)-1-hydroxy-3-(pyrrolidin-1-yl)propan-2-yl)-1-(4-chlorophenyl)pyrrolidine-3-carboxamide] was tested, and the “Data Range (% inhibition)” value was “NA (not active—a negative value was generated for % inhibition)”.
With O=C(N[C@H](CN1CCCC1)[C@H](O)c1ccc2c(c1)OCCO2)[C@@H]1CCN(CCc2ccc(Cl)cc2)C1 [Compound 21, (R)-1-(4-chlorophenethyl)-N-((1R,2R)-1-(2,3-dihydrobenzo[b][1,4]dioxin-6-yl)-1-hydroxy-3-(pyrrolidin-1-yl)propan-2-yl)pyrrolidine-3-carboxamide] the “Data Range (% inhibition)” value was “F (1-49% (or less than 50%))”.
With O=C(N[C@H](CN1CCCC1)[C@H](O)c1ccc(OC2CC2)nc1)[C@@H]1CCN(c2ccc(F)cc2)C1 [Compound 27, (R)-N-((1R,2R)-1-(6-cyclopropoxypyridin-3-yl)-1-hydroxy-3-(pyrrolidin-1-yl)propan-2-yl)-1-(4-fluorophenyl)pyrrolidine-3-carboxamide] the “Data Range (% inhibition)” value was “E (50-74% (or less than 75%))”.
In the case of O=C(N[C@H](CN1CCCC1)[C@H](O)c1ccc(OCC(F)(F)F)nc1)[C@@H]1CCN(c2ccc(Cl)cc2)C1 [Compound 33, (R)-1-(4-chlorophenyl)-N-((1R,2R)-1-hydroxy-3-(pyrrolidin-1-yl)-1-(6-(2,2,2-trifluoroethoxy)pyridin-3-yl)propan-2-yl)pyrrolidine-3-carboxamide], the “Data Range (% inhibition)” value is reported as “F (1-49% (or less than 50%))”.
With O=C(N[C@H](CN1CCCC1)[C@H](O)c1ccc2c(c1)OCCO2)C1CCN(Cc2ccc(Cl)cc2)C1 (some centres unmarked) [Compound 15C] the “Data Range (% inhibition)” value was “F (1-49% (or less than 50%))”.
For O=C(N[C@H](CN1CCCC1)[C@H](O)c1ccc2c(c1)OCCO2)[C@H]1CCN(c2ccc(OC3CC3)c(Cl)c2)C1 [Compound 20E, (S)-1-(3-chloro-4-cyclopropoxyphenyl)-N-((1R,2R)-1-(2,3-dihydrobenzo[b][1,4]dioxin-6-yl)-1-hydroxy-3-(pyrrolidin-1-yl)propan-2-yl)pyrrolidine-3-carboxamide], the “Data Range (% inhibition)” value was “F (1-49% (or less than 50%))”.
With O=C(N[C@H](CN1CCCC1)[C@H](O)c1ccc2c(c1)OCCO2)[C@@H]1CCN(c2cnc3cccnc3c2)C1 [Compound 90, (R)-N-((1R,2R)-1-(2,3-dihydrobenzo[b][1,4]dioxin-6-yl)-1-hydroxy-3-(pyrrolidin-1-yl)propan-2-yl)-1-(1,5-naphthyridin-3-yl)pyrrolidine-3-carboxamide] the “Data Range (% inhibition)” value was “F (1-49% (or less than 50%))”.
Cc1cc(N2CC[C@H](C(=O)N[C@H](CN3CCCC3)[C@H](O)c3ccc4c(c3)OCCO4)C2)cc(C)n1 [Compound 82E, (S)-N-((1R,2R)-1-(2,3-dihydrobenzo[b][1,4]dioxin-6-yl)-1-hydroxy-3-(pyrrolidin-1-yl)propan-2-yl)-1-(2,6-dimethylpyridin-4-yl)pyrrolidine-3-carboxamide] was tested, and the “Data Range (% inhibition)” value was “NA (not active—a negative value was generated for % inhibition)”.
For O=C(N[C@H](CN1CCCC1)[C@H](O)c1ccc2c(c1)OCCO2)[C@H]1CCN(c2ccc3cc(F)ccc3c2Cl)C1 [Compound 88D, (S)-1-(1-chloro-6-fluoronaphthalen-2-yl)-N-((1R,2R)-1-(2,3-dihydrobenzo[b][1,4]dioxin-6-yl)-1-hydroxy-3-(pyrrolidin-1-yl)propan-2-yl)pyrrolidine-3-carboxamide], the “Data Range (% inhibition)” value was “F (1-49% (or less than 50%))”.
For O=C(N[C@H](CN1CCC1)[C@H](O)c1cc(F)c2c(c1)OCCO2)[C@H]1CCN(c2ccc(Cl)cc2)C1 [Compound 25B, (S)-N-((1R,2R)-3-(azetidin-1-yl)-1-(8-fluoro-2,3-dihydrobenzo[b][1,4]dioxin-6-yl)-1-hydroxypropan-2-yl)-1-(4-chlorophenyl)pyrrolidine-3-carboxamide], the “Data Range (% inhibition)” value was “F (1-49% (or less than 50%))”.
O=C(N[C@H](CN1CCCC1)[C@H](O)c1cc(F)c2c(c1)OCCO2)[C@H]1CCN(c2ccc3c(c2)CCCC3)C1 [Compound 93A, (S)-N-((1R,2R)-1-(8-fluoro-2,3-dihydrobenzo[b][1,4]dioxin-6-yl)-1-hydroxy-3-(pyrrolidin-1-yl)propan-2-yl)-1-(5,6,7,8-tetrahydronaphthalen-2-yl)pyrrolidine-3-carboxamide] was tested, and the “Data Range (% inhibition)” value was “E (50-74% (or less than 75%))”.
In the case of O=C(N[C@H](CN1CCCC1)[C@H](O)c1ccc(OC2CCOCC2)c(Cl)c1)[C@H]1CCN(c2ccc(Cl)cc2)C1 [Compound 45A, (S)-N-((1R,2R)-1-(3-chloro-4-((tetrahydro-2H-pyran-4-yl)oxy)phenyl)-1-hydroxy-3-(pyrrolidin-1-yl)propan-2-yl)-1-(4-chlorophenyl)pyrrolidine-3-carboxamide], the “Data Range (% inhibition)” value is reported as “F (1-49% (or less than 50%))”.

— patent publication US10239832B2, “N-(1-hydroxy-3-(pyrrolidinyl)propan-2-yl)pyrrolidine-3-carboxamide derivatives as glucosylceramide synthase inhibitors” (BIOMARIN PHARMACEUTICAL INC., priority 2013, dated 2019)
